# According to US20230001017A1, “FORMULATION FOR DELIVERY OF LUBRICIN GENE” (University of lowa Research Foundation, priority 2019, published 2023):
# “Also recorded” adds a separate entry of the source.
# Assays:
# α-SMA expression in JCFs = assay: α-SMA immunostaining of JCFs from treated joints; assay type: cell-based, rabbit; details: versus control
# Protocol: (§1) Capsule tissues were harvested and transferred to a T-75 flask with 15 mL of Dulbecco's Modified Eagle Medium/Ham's Formula-12 Nutrient Mixture (DMEM/F-12) media containing 10% fetal bovine serum (FBS), 1% Penn Strep, and 1% Amphotericin B, and incubated at 37° C. in a 5% O2, 5% CO2 atmosphere for about 5 days to allow cells to migrate out of the tissue and adhere to the plate. The JCFs were cultured until confluent (about 2 weeks) before analysis.
# JCFs were seeded at a density of 10,000 cells per […] on UV-sterilized glass coverslips. After 48 hours, the medium was discarded and the samples were washed with Dulbecco's PBS (DPBS). The samples were fixed in 4% paraformaldehyde for 1 hour and then rinsed thrice with DPBS. The cells were then permeabilized with 0.5% Triton X for 5 minutes at room temperature and blocked with 10% goat serum for 30 minutes. The samples were then incubated with an anti-α-SMA mouse monoclonal antibody (Abcam) at a 1:100 dilution in DPBS overnight at 4° C. After washing in DPBS, the cells were blocked with goat serum for 30 minutes at 37° C. and then incubated with a fluorophore-conjugated goat anti-mouse IgG secondary antibody (488 excitation) (Life Technologies) at a 1:100 dilution for 30 minutes at 37° C. Cells were then washed thrice with DPBS, incubated with phalloidin at a 1:100 dilution for 30 minutes at 37° C., and then mounted with 4′,6-diamidino-2-phenylindole (DAPI)-containing mounting medium. Stained sections were imaged using an Olympus FV1000 confocal microscope. Percent positive α-SMA (immunostained/DAPI-stained×100) was evaluated in at least 4 microscope fields using ImageJ.
# [1] = Drug content of PLGA pellets; assay type: physicochemical
# Protocol: Drug-loaded PLGA pellets were made by the hot-melt extrusion method (Leelakanok et al., […]; Danyuo et al., 2017). The goal was to load the maximum amount of drug possible in the pellets, which varies depending on the physical and chemical properties of the drugs and their behavior during the hot melt extrusion process. The maximum doses carried in PLGA pellets were 120±3.6 μg SSZ/mg pellet, 126±5 μg BAPN/mg pellet, and 250±3.2 μg CHP/mg pellet. In vitro tests confirmed the drugs and pellets were not cytotoxic (FIG. 40).
# To determine the drug content of the pellets, the pellets were individually dissolved in chloroform (500 μL) and then mixed with 1 mL water to let the active ingredient migrate to the aqueous phase for at least 30 minutes. Drug elution profiles were characterized in vitro prior to implantation. Elution was measured by incubation of the pellets in phosphate buffered saline (PBS) at 37° C. in a shaking incubator set to 300 rpm (FIGS. 30B, C, and D) (Leelakanok et al., 2018; Danyuo et al., 2017). At each time point, PBS was removed from the pellets and replaced with fresh PBS. The amount of BAPN released at each time point was determined using a Fluorescamine assay followed by fluorescent spectroscopy (excitation wavelength: 390 nm, emission wavelength: 475 nm). The amount of CHP released at each time point was determined by hydroxyproline assay with spectrophotometric detection at 560 nm. The amount of SSZ released at each time point was determined using UV spectroscopy at 359 nm.
# normal wound healing = details: therapeutic dose levels; cited from earlier work
# stifle joint stiffness = assay: Flexion-extension testing, rabbit stifle joint immobilization model; assay type: in vivo; details: 8 weeks after pellet implantation; for Maximum torque (joint stiffness): versus blank pellet control
# From the text: (§2) The minimal number of animals was used to assess the specific aims of this study. Eight-rabbits were included in each of the treatment groups. […] Non-immobilized, untreated (normal) joints were included to provide normative baselines for joint mobility and histologic outcomes. The study included this normal group, as well as an immobilized group implanted with blank pellets (control), and immobilized groups treated with BAPN-, CHP-, or SSZ-loaded pellets. Joints were immobilized for 8 weeks to establish arthrofibrosis/capsule contracture as previously described (Nesterenko et al., 2009). Kirschner-wires (K-wires) were then removed and the various pellets implanted in the joint. After another 8 weeks the animals were euthanized, and the joints immediately tested for stiffness in extension and anterior-posterior (A-P) laxity. Capsule tissues were harvested for histology to evaluate in situ α-SMA expression and intima thickness, and for in vitro quantitation of cellular contractile activity and α-SMA expression.
# Flexion-extension testing of normal and fibrotic joints was performed immediately after euthanasia, when limbs were disarticulated at the hip, stripped of skin and muscle, and fastened securely to a custom testing device equipped with a stepper motor and a 10 N load cell and controlled by a computer with a custom LabVIEW (National Instruments)-based program (FIG. 38) (Hildebrand et al., 2004; Nesterenko et al., 2009). Starting at 10° of extension, the limbs were driven to 170° of extension, and then returned to the starting position at a rotational velocity of 5°/s while continuously recording load and position. The starting extension angle was measured using a digital protractor (Barry Wixey Development) (FIG. 39). The peak torque at maximum extension (N-m) and dissipated energy (mJ) were derived as measures of joint stiffness. The increased hysteresis in immobilized joints arises from posterior capsule stiffening, which restricts extension, but not flexion.
# [2] = tested on: joint capsule fibroblasts (JCFs); assay: Collagen gel compaction assay with JCFs from treated joints; assay type: cell-based, rabbit; details: for Compaction rate: first 12 hours of incubation, versus control; for Maximum compaction at 48 hours: cells from immobilized treated joints versus control joints
# Protocol: as §1
# Collagen gel compaction assays were used to determine the contractile activity of JCFs isolated from variously treated rabbits (Yuda & McCulloch, 2018). Collagen gels were produced by combining 10×PBS containing phenol red, 1N NaOH, and rat tail type I collagen (2 mg/mL) (Invitrogen), and JCFs to give a final cell concentration of 1×10^6 cells/mL. Five hundred μL of the collagen gel mixture was added to each well in a 24-well plate and allowed to polymerize for 30 minutes in an incubator. After 30 minutes, 500 μL of DMEM containing 10% FBS and 50 μg/mL ascorbic acid was added to each well. The plates were then incubated for 24 hours to allow the cells to generate a state of isometric tension. After 24 hours, the medium was replaced with 500 μL of fresh DMEM containing 10% FBS and ascorbic acid. After 48 hours, the gels were detached from the walls of the wells using a sterile spatula to allow the cells to freely compact the gels. Images were acquired over the next 48 hours, and the changes in gel cross sectional area were measured with ImageJ.
# DNA assays were used to control for well-well variations in cell numbers that could affect the rate and extent of gel compaction. After 48 hours of compaction, the medium was aspirated and the gels were washed with PBS thrice. Five hundred μL of 0.25 mg/mL collagenase was added and the plates incubated at 37° C. overnight. Cell pellets were collected by centrifuging at 500 g for 10 minutes. The supernatants were discarded and the pellets frozen at −80° C. overnight. After thawing at room temperature, the pellets were suspended in 1.0 mL of RNAse/DNAse-free water and then sonicated for 30 minutes. DNA concentrations were measured using 0.2 μg/mL of Hoechst 33342 in 10×TNE buffer (100 mM Tris, 2.0 M NaCl, and 10 mM EDTA at pH 7.4) with excitation and emission wavelengths at 360 nm and 460 nm respectively with calf thymus DNA as a standard. A calibration curve was generated to relate DNA concentration to the number of JCFs in the cultures.
# [3] = tested on: PTOA after intra-articular fracture; assay: Porcine intra-articular fracture (IAF) model; assay type: in vivo, Yucatan minipig; details: 6 months post-IAF; intra-articular injection, 2.5 mM; anatomically-reduced joints
# From the text: Yucatan Minipig Intra-articular Fracture Model. The Yucatan minipig model was developed to create an IAF of a reproducible severity without arthrotomy (Goetz et al., 2015). Under general anesthesia, an antero-medial approach to the hock joint, which is analogous to the human ankle joint, is made without disrupting the joint capsule. […] A stress-rising saw cut is made through the anterior tibial cortex, stopping 1-2 mm proximal to the subchondral bone. Two drill holes are made proximal to the saw cut into which a plate with a ball-joint is press fit. This ball joint interfaces with the instrumented sled on our impaction pendulum to rigidly support the tibia. The pendulum delivers a 40 J impact to the impaction tripod, driving the talus against the distal tibia causing a fracture of the distal tibia that is guided by the stress-rising saw cut. The result is a fracture fragment that consists of the anterior third of the distal tibial articular surface which is fixed using standard open reduction and internal fixation (ORIF) techniques (FIG. 12). […] In this study it is determined if lubricin gene therapy is an effective adjunct to amobarbital at the later time point, with or without residual incongruity; thus, all animals in this study survive to 12 months post-fracture. […]
# [4] = tested on: PTOA after intra-articular fracture; details: 12 months post-IAF; cited from earlier work
# [5] = tested on: fibrosis in a rat stifle joint immobilization model; details: in vivo; cited from earlier work
# ACL function = assay: Drawer test (A-P laxity), rabbit stifle joint immobilization model; assay type: in vivo; details: 8 weeks after pellet implantation; versus control
# From the text: as §2, with “After another 8 weeks the animals were euthanized, and the joints immediately tested for stiffness in extension and anterior-posterior (A-P) laxity.” left out
# After flexion-extension testing, a custom loading fixture was used to assess sagittal-plane laxity (drawer test), which is related to cruciate ligament integrity (Tochigi et al., 2011). […] Force and displacement data were continuously recorded through the sequence of tests, which consisted of three cycles to adjust leg placement for neutral starting position, followed by three cycles of data collection. […]
# synovial intima = assay: Capsule histology, synovial intimal thickness; assay type: in vivo, rabbit; details: immobilization-induced increase, versus control
# From the text: as §2
# Portions of the posterior capsule were fixed in 10% neutral buffered formalin, and then processed for paraffin histology. […] Stained slides were imaged using an Olympus VS110 Virtual Microscope System, and intimal thickness was quantified at 5 random areas in the synovial intima using ImageJ.
SMILES,Percent α-SMA positive (α-SMA expression in JCFs),Maximum dose carried in PLGA pellets [1],Effect on normal wound healing (normal wound healing),Maximum torque (joint stiffness) (stifle joint stiffness),Compaction rate [2],PTOA progression at 6 months [3],PTOA progression at 12 months [4],Development of fibrosis [5],Maximum compaction at 48 hours [2],Maximum compaction at 48 hours ([2]; listed as beta-aminopropionitrile),Percent α-SMA positive (α-SMA expression in JCFs; listed as sulfasalazine),Anterior drawer stiffness / A-P laxity (ACL function),Synovial intimal thickness (synovial intima),Synovial intimal thickness (synovial intima; listed as sulfasalazine),Maximum torque (joint stiffness) (stifle joint stiffness; listed as sulfasalazine),Dissipated energy (stifle joint stiffness; versus control),Maximum compaction at 48 hours ([2]; listed as Sulfasalazine)
"O=C(O)[C@@H]1C[C@@H](O)CN1 (relative stereo) [CHP, Cis-hydroxyproline]",only slightly lower than control,250±3.2 μg CHP/mg pellet,Neither CHP nor BAPN retarded normal wound healing,Neither BAPN nor CHP had significant effects,somewhat lower than control,,,,,,,,,,,,
CCC1(CCC(C)C)C(=O)NC(=O)NC1=O [amobarbital],,,,,,dramatically forestalled the progression of PTOA; also recorded: highly effective in preventing changes,moderate degenerative changes were observed; also recorded: less effective,,,,,,,,,,
"N#CCCN [BAPN, beta-amino propionitrile]",nearly significantly lower,126±5 μg BAPN/mg pellet,Neither CHP nor BAPN retarded normal wound healing,Neither BAPN nor CHP had significant effects,somewhat lower than control,,,prevented the development of fibrosis,significantly lower,significantly inhibited this effect,,,,,,,
"O=C(O)c1cc(/N=N/c2ccc(S(=O)(=O)Nc3ccccn3)cc2)ccc1O [SSZ, Sulfasalazine]",significantly lower than control,120±3.6 μg SSZ/mg pellet,,significantly less stiff than controls,significantly lower compaction rate,,,,significantly lower,,significantly higher in control versus normal (p=0.0021) and versus sulfasalazine,significantly stiffer than controls,inhibited significantly,significantly lower than control,reduced stiffness,significantly reduced,significantly inhibited this effect
